Patent US20250228239A1, “MOLECULES HAVING PESTICIDAL UTILITY, AND INTERMEDIATES, COMPOSITIONS, AND PROCESSES, RELATED THERETO” (priority 2024, published 2025)

Tests used:
[1] = system: Cabbage Looper (Trichoplusia ni, TRIPNI); experiment: Bioassays on Cabbage Looper (CL), 128-well diet tray assay; type: in vivo; details: Trichoplusia ni; Cabbage Looper, Table ABC / ABC-DP rating; read-out: CL rating
Summary of the method: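 One to five second-instar larvae per well on artificial diet surface-treated with 50 μg/cm^2 test molecule (applied in 90:10 acetone-water, dried). Held 5–7 days at 25° C, 14:10 light-dark; percent mortality recorded per well and averaged over eight wells.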

[2] = system: Beet Armyworm (Spodoptera exigua, LAPHEG); experiment: Bioassays on Beet Armyworm (BAW), 128-well diet tray assay; type: in vivo; details: Spodoptera exigua; Beet Armyworm, Table ABC / ABC-DP rating; read-out: BAW rating
Summary of the method: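 Second-instar larvae, one to five per well, were placed on artificial diet surface-treated with 50 μg/cm^2 compound in 90:10 acetone-water, eight wells per treatment. Trays were held 5–7 days at 25 °C, 14:10 light-dark. Percent mortality per well was averaged over eight wells.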

| Compound | pest or weed control at 50 µg/cm2 [1] [%] | pest or weed control at 50 µg/cm2 [2] [%] |
| --- | --- | --- |
| O=C(CCC(F)(F)C(F)(F)F)Nc1c(F)ccc(NC(=O)c2cc(NC(=O)[C@H]3[C@H](c4ccc(F)c(Cl)c4)C3(Cl)Cl)ccc2Cl)c1F [F1865, 2-Chloro-5-((1R,3R)-2,2-dichloro-3-(3-chloro-4-fluorophenyl)cyclopropane-1-carboxamido)-N-(2,4-difluoro-3-(4,4,5,5,5-pentafluoropentanamido)phenyl) benzamide] | 50 to 100 | 50 to 100 |
| O=C(COCC(F)(F)F)Nc1c(F)ccc(NC(=O)c2cc(NC(=O)[C@H]3[C@H](c4ccc(F)c(Cl)c4)C3(Cl)Cl)ccc2Cl)c1F [F1867, 2-Chloro-5-((1R,3R)-2,2-dichloro-3-(3-chloro-4-fluorophenyl)cyclopropane-1-carboxamido)-N-(2,4-difluoro-3-(2-(2,2,2-trifluoroethoxy)acetamido)phenyl) benzamide] | 50 to 100 | 50 to 100 |
| C=C(F)C(=O)Nc1c(F)ccc(NC(=O)c2cc(NC(=O)[C@H]3[C@H](c4ccc(Cl)c(Cl)c4)C3(Cl)Cl)ccc2Cl)c1F [F1871, 2-Chloro-5-((1R,3R)-2,2-dichloro-3-(3,4-dichlorophenyl)cyclopropane-1-carboxamido)-N-(2,4-difluoro-3-(2-fluoroacrylamido)phenyl)benzamide] | 50 to 100 | 50 to 100 |
| C=C(F)C(=O)Nc1c(F)ccc(NC(=O)c2cc(NC(=O)[C@H]3[C@H](c4cc(Cl)c(Cl)c(Cl)c4)C3(Cl)Cl)ccc2Cl)c1F [F1872, 2-Chloro-5-((1R,3R)-2,2-dichloro-3-(3,4,5-trichlorophenyl)cyclopropane-1-carboxamido)-N-(2,4-difluoro-3-(2-fluoroacrylamido)phenyl)benzamide] | 50 to 100 | 50 to 100 |
| C=CCC(=O)Nc1c(F)ccc(NC(=O)c2cc(NC(=O)[C@H]3[C@H](c4ccc(Cl)c(Cl)c4)C3(Cl)Cl)ccc2Cl)c1F [F1873, N-(3-(But-3-enamido)-2,4-difluorophenyl)-2-chloro-5-((1R,3R)-2,2-dichloro-3-(3,4-dichlorophenyl)cyclopropane-1-carboxamido)benzamide] | 50 to 100 | 50 to 100 |
| C=CCC(=O)Nc1ccc(F)c(NC(=O)c2cc(NC(=O)[C@H]3[C@H](c4cc(Cl)c(Cl)c(Cl)c4)C3(Cl)Cl)cc(F)c2F)c1F [F1875, N-(3-(But-3-enamido)-2,6-difluorophenyl)-5-((1R,3R)-2,2-dichloro-3-(3,4,5-trichlorophenyl)cyclopropane-1-carboxamido)-2,3-difluorobenzamide] | 50 to 100 | 50 to 100 |
| C=CC(=O)Nc1c(F)ccc(NC(=O)c2cc(NC(=O)[C@H]3[C@H](c4ccc(F)c(C(F)(F)F)c4)C3(Cl)Cl)ccc2Cl)c1F [F1877, N-(3-Acrylamido-2,4-difluorophenyl)-2-chloro-5-((1R,3R)-2,2-dichloro-3-(4-fluoro-3-(trifluoromethyl)phenyl)cyclopropane-1-carboxamido)benzamide] | 50 to 100 | 50 to 100 |
| C=CCC(=O)Nc1c(F)ccc(NC(=O)c2cc(NC(=O)[C@H]3[C@H](c4ccc(F)c(Br)c4)C3(Cl)Cl)ccc2Cl)c1F [F1880, 5-((1R,3R)-3-(3-Bromo-4-fluorophenyl)-2,2-dichlorocyclopropane-1-carboxamido)-N-(3-(but-3-enamido)-2,4-difluorophenyl)-2-chlorobenzamide] | 50 to 100 | 50 to 100 |
| CCNC(=O)c1c(Cl)ccc(NC(=O)[C@H]2[C@H](c3ccc(F)c(Cl)c3)C2(Cl)Cl)c1F [F2071, 6-Chloro-3-((1R,3R)-2,2-dichloro-3-(3-chloro-4-fluorophenyl)cyclopropane-1-carboxamido)-N-ethyl-2-fluorobenzamide] | 50 to 100 | 50 to 100 |
